Data reported in US20120015923A1, “USE OF ANDROGRAPHOLIDE COMPOUNDS FOR TREATING INFLAMMATION AND AIRWAY DISORDERS” (NATIONAL UNIVERSITY OF SINGAPORE, priority 2009, published 2012).

Experiments:
Assay type in all cases: in vivo, BALB/c mice
[1] = test system: IL-4, IL-5, IL-13, eotaxin and IFN-γ in the BAL fluid; assay: Cytokine and chemokine levels in BAL fluid (ELISA), OVA mouse asthma model; details: OVA-challenged mice
[2] = test system: IL-4, IL-5, IL-13, eotaxin and IFN-γ in the BAL fluid; assay: as above; details: OVA-challenged mice; remark: listed apart in the source
Procedure: Andrographolide or DDAG alone (0.1, 0.5, and 1 mg/kg; Sigma, St. Louis, Mo.) or vehicle (1% dimethyl sulfoxide [DMSO]) in 0.1 ml saline was given by intraperitoneal injections 2 hour before and 10 hours after each OVA aerosol challenge. Andrographolide or 14-deoxy-11,12-didehydroandrographolide (DDA) were prepared from stock. DMSO was used as a solvent to dissolve Andrographolide or DDA. A stock solution of 10 mg/ml was prepared and stored at −20° C. When used, the stock solution was thawed and diluted with Saline solution to form three different drug concentrations: 0.01 mg/ml, 0.05 mg/ml and 0.1 mg/ml.
Bronchoalveolar lavage (BAL) was conducted on Day 25, 24 hours after the final OVA/saline challenge. Mice were anaesthetized by 0.3 ml i.p. injections of an anesthetic cocktail (ketamine: medetomidine: H2O=3:4:33, Parnell, Alexandria NSW, Australia & Pfizer, Auckland, New Zealand) with 27 G½ sterile needle (PrecisionGlide®). Mice were sacrificed by cervical dislocation 5 minutes after anesthetization. 25 G½ sterile needles (PrecisionGlide®) were used for blood extraction. […] Tracheotomy was then performed and a small transverse incision was made on the exposed trachea. Blunt needles (20 G), which were connected to 1 ml sterile syringes, were inserted into the trachea through this incision and 0.5 ml of ice-cold PBS (4° C.) was instilled thrice into the lungs (0.5 ml×3). About 1.2-1.4 ml of BAL fluid was retrieved from each mouse and was kept in −80° C. for subsequent experiments.
DDAG alone (0.1, 0.5, and 1 mg/kg; Sigma, St. Louis, Mo.) or vehicle (2% dimethyl sulfoxide [DMSO]) in 0.1 ml saline was given by intraperitoneal injections 2 hour before and 10 hours after each OVA aerosol challenge. In the combinational experiments, DDAG (0.1 mg/kg) in combination with Dexamethasone (0.05 mg/kg) was given intraperitoneally. In both experimental setting, saline aerosol was used as a negative control. Animal experiments were performed according to the Institutional guidelines for Animal Care and Use Committee of the National University of Singapore.
Levels of IL-4, 11-5, IL-13, eotaxin and IFN-γ in the BAL fluid were measured (IL-4, IL-5 and IFN-γ from BD Biosciences Pharmingen, San Diego, Calif., USA; IL-13 and eotaxin from R&D Systems, Minneapolis, Minn., USA). The kits were obtained from two different manufacturers and thus the protocols differed in certain steps. In brief, 50 μl of coating capture antibody in respective coating buffers (pH 9.5, 0.1 M sodium carbonate for IL-4, IL-5 and IFN-γ; 1×PBS for IL-13 and eotaxin) was coated to 96-well ELISA plate (NUNC, Denmark). The plate was sealed with parafilm and incubated overnight at respective temperature (4° C. for IL-4, IL-5 and IFN-γ and room temperature for IL-13 and eotaxin). Next day, each well was washed with washing buffer (PBS with 0.05% Tween-20) and blocked with 200 μl blocking buffer (PBS with 10% FBS for IL-4, IL-5 and IFN-γ; 1×PBS with 1% BSA and 5% sucrose for IL-13 and eotaxin) for 2 hours at room temperature. After blocking, 50 μl of standards and BAL fluid samples were loaded into respective wells, and incubated for 2 h at room temperature. Several washings were done to remove unbound molecules. The plate was incubated with biotinylated-detection antibody with HRP for 1 h (BD OptEIA™ Kit) or with biotinylated detection antibody for 1 h followed by HRP for 45 min (R&D Kit). After washing, 50 μl of TMB peroxidase substrate (solution A: solution B=9:1) was added into each well, and incubated for 30 min in dark. Lastly, 50 μl of stopping solution (1 M H2SO4) was added to stop the reaction. The optical density of each well in the plate was read at 450 nm with λ correction at 570 nm. Detection limits of the respective kits are as follow: 4 pg/ml for IL-4 and IL-5; 15.6 pg/ml for IL-13 and IFN-γ; and 2 pg/ml for eotaxin.

[3] = test system: total IgE and OVA-specific IgE, IgG1, and IgG2a in serum; assay: Serum Ig levels (ELISA), OVA mouse asthma model; details: OVA-challenged mice, serum 24 hours after last OVA aerosol; for serum OVA-specific IgE level: DDAG even at lowest dose 0.1 mg/kg
Procedure: Blood collected from the hearts were allowed to clot for at least 4 h. Centrifugation at 3000 rpm for 5 min at 4° C. was then performed on all blood samples. The supernatant, which is the serum, was extracted carefully and stored at −80° C. The samples were kept for ELISA.
Mice were anesthetized 24 hours after the last aerosol challenge and bronchoalveolar lavage (BAL) was performed as described above. BAL fluid total and differential cell counts, and cytokine and chemokine levels were determined as described above. Blood was collected by cardiac puncture, and serum levels of total IgE and OVA-specific IgE, IgG1, and IgG2a levels were determined.
Levels of total IgE and OVA-specific IgE, IgG 1 , and IgG2a in serum were measured. 96-well ELISA plate coated with either 50 μl of capture antibody (for total IgE, 1:250 dilution with 1 M Na2CO3) or 50 μl of 20 μg/ml OVA (for OVA-specific IgE, IgG1, and IgG2a) overnight at 4° C. Next day, the plate was washed with washing buffer (PBS with 0.05% Tween-20 for total IgE; PBS with 0.1% Tween-20 for OVA-specific IgE) and blocked with 300 μl 10% FBS in PBS for 2 hr at room temperature. After blocking, standards (only for total IgE) and serum samples were loaded into respective wells and incubated for 2 h. Followed by washing, respective detective antibodies were added and incubated for 1 h, followed by 45 min incubation of HRP-conjugate antibody for 45 min in the dark. Substrates were then added for 30 min in the dark with mild shaking. Lastly, 50 μl of stopping solution (1 M H2SO4) was added to stop the reaction. The optical density of each well in the plate was read at 450 nm with λ correction at 570 nm. The detection limit for total IgE was 2 ng/ml.

Nitric Oxide (NO) = assay: Serum nitrate nitrite level; details: OVA-challenged mice
[4] = 0.1, 0.5, 1 mg/kg i.p., 24 hours after last OVA aerosol, vs DMSO control
[5] = DDAG significant at higher doses

In the case of `C=C1CC[C@@H]2[C@](C)(CO)[C@H](O)CC[C@@]2(C)[C@@H]1C/C=C1/C(=O)OC[C@H]1O` [Andrographolide], the “GM-CSF level in BAL fluid” value [1] is reported as “inhibited”, the “TNF-α level in BAL fluid” value [1] is reported as “inhibited” and the “IL-4 level in BAL fluid” value [2, 4] is reported as “inhibited”. The “IL-5 level in BAL fluid” value [2, 4] was “inhibited”, the “IL-13 level in BAL fluid” value [2, 4] was “inhibited” and the “eotaxin level in BAL fluid” value [2, 4] was “inhibition”. The “serum OVA-specific IgG2a level” value [3] was “inhibition”, the “serum OVA-specific IgE level” value [3] was “significantly lowered” and the “serum OVA-specific IgG1 level” value [3, 5] was “inhibition”. The “serum total IgE level” value [3, 5] was “significantly lowered”.
For `C=C1CCC2C(C)(CO)C(O)CCC2(C)C1C=CC1=CCOC1=O` (stereo not drawn) [DDAG, 14-Deoxy-11,12-didehydroandrographolide], the “serum nitrate nitrite level” value (Nitric Oxide (NO)) was “reduce”, the “IFN-γ level in BAL fluid” value ([2]; 1 mg/kg) was “markedly upregulated” and the “IL-4 level in BAL fluid” value [2, 4] was “significantly (P<0.05) reduced”. The “IL-5 level in BAL fluid” value [2, 4] was “significantly (P<0.05) reduced”, the “IL-13 level in BAL fluid” value [2, 4] was “significantly (P<0.05) reduced” and the “serum OVA-specific IgG2a level” value [3] was “no effects”. For the same compound, the “serum OVA-specific IgE level” value [3] was “strongly suppressed” and the “serum total IgE level” value [3, 5] was “to a lesser extent”.
